Assay results from US9242996B2 (Novartis AG, priority 2013, dated 2016).

How the values were obtained:
[1] = target: T1, activated ERK2 (Homo sapiens (Human), UniProt P28482); assay: Activated ERK2 kinase assay, ERK2 New conditions (AlphaScreen, ERKtide phosphorylation); type: biochemical; conditions: 0.25 nM ERK2, 200 nM ERKtide peptide, 35 μM ATP, 30 min preincubation
Procedure, shortened: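 0.25 nM ERK2 preincubated 30 min with compound, then reacted 2–3 h at ambient temperature with 200 nM ERKtide and 35 µM ATP (final) in HEPES pH 7.5 buffer. EDTA stop; phospho-peptide detected by AlphaScreen after overnight incubation; IC50 from four-parameter fit.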

[2] = target: T1, activated ERK2; assay: Activated ERK2 (20 pM) Kinase Assay (AlphaScreen, ERKtide phosphorylation); type: biochemical; conditions: 0.02 nM ERK2, 400 nM ERKtide peptide, 35 μM ATP, 30 min preincubation
Procedure, shortened: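 Activated human ERK2 (0.02 nM) preincubated 30 min with compounds, then 400 nM ERKtide and 35 μM ATP added for 4 h at ambient temperature in HEPES pH 7.5, MgCl2, DTT, Tween-20, BSA. EDTA stop; phospho-peptide read by AlphaScreen after overnight dark incubation; four-parameter IC50.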

T1 sequence (P28482 whole entry): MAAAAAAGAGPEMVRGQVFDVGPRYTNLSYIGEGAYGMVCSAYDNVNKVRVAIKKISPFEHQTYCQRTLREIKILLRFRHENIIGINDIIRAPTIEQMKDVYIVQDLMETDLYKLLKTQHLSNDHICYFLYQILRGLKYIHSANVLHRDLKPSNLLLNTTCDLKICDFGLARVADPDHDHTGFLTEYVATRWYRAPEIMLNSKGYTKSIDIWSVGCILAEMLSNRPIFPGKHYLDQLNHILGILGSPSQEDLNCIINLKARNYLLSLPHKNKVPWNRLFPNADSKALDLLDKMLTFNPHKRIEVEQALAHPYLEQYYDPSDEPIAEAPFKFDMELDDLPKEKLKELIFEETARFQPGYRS

| SMILES | IC50 [1] | IC50 [2] |
| --- | --- | --- |
| Nc1ncc(C2CCNC(=O)C2)cc1-c1ccc(C(=O)N[C@H](CO)c2cccc(Cl)c2)c(F)c1 (mixture of isomers) [Example 121, 4-(2-amino-5-(2-oxopiperidin-4-yl)pyridin-3-yl)-N-((S)-1-(3-chlorophenyl)-2-hydroxyethyl)-2-fluorobenzamide] | 0.34 nM | 0.217 nM |
| CS(=O)(=O)[C@H]1CC[C@@H](c2cnc(N)c(-c3ccc(C(=O)NCc4ccccc4)c(F)c3)n2)CC1 [Example 16, 4-(3-amino-6-((1s,4s)-4-(methylsulfonyl)cyclohexyl)pyrazin-2-yl)-N-benzyl-2-fluorobenzamide] | 206 nM | 197 nM |
| CN1CC[C@@H](c2cnc(N)c(-c3ccc(C(=O)N[C@H](CO)c4cccc(Cl)c4)c(F)c3)c2)CC1=O [Example 27, 4-(2-amino-5-((R)-1-methyl-2-oxopiperidin-4-yl)pyridin-3-yl)-N—((S)-1-(3-chlorophenyl)-2-hydroxyethyl)-2-fluorobenzamide] | 4.1 nM | 1.87 nM |
| CN1CC[C@H](c2cnc(N)c(-c3ccc(C(=O)N[C@H](CO)c4cccc(Cl)c4)c(F)c3)c2)CC1=O [Example 28, 4-(2-amino-5-((S)-1-methyl-2-oxopiperidin-4-yl)pyridin-3-yl)-N—((S)-1-(3-chlorophenyl)-2-hydroxyethyl)-2-fluorobenzamide] | 2.55 nM | 1.2 nM |
| C[C@@H](NC(=O)c1ccc(-c2cc([C@@H]3CCN(C)C(=O)C3)cnc2N)cc1F)c1ccccc1 [Example 30, 4-(2-amino-5-((R)-1-methyl-2-oxopiperidin-4-yl)pyridin-3-yl)-2-fluoro-N—((R)-1-phenylethyl)benzamide] | 69.5 nM | 22.5 nM |
| C[C@@H](NC(=O)c1ccc(-c2cc([C@H]3CCN(C)C(=O)C3)cnc2N)cc1F)c1ccccc1 [Example 31, 4-(2-amino-5-((S)-1-methyl-2-oxopiperidin-4-yl)pyridin-3-yl)-2-fluoro-N—((R)-1-phenylethyl)benzamide] | 74 nM | 32 nM |
| C[C@@H](NC(=O)c1ccc(-c2cc([C@H]3CCC(=O)N(C)C3)cnc2N)cc1F)c1cccc(Cl)c1 [Example 39, 4-(2-amino-5-((R)-1-methyl-6-oxopiperidin-3-yl)pyridin-3-yl)-N—((R)-1-(3-chlorophenyl)ethyl)-2-fluorobenzamide] | 2.48 nM | 1.3 nM |
| C[C@@H](NC(=O)c1ccc(-c2cc([C@@H]3CCC(=O)N(C)C3)cnc2N)cc1F)c1cccc(Cl)c1 [Example 40, 4-(2-amino-5-((S)-1-methyl-6-oxopiperidin-3-yl)pyridin-3-yl)-N—((R)-1-(3-chlorophenyl)ethyl)-2-fluorobenzamide] | 2.46 nM | 1.26 nM |
| CO[C@H]1CC[C@H](c2cnc(N)c(-c3ccc(C(=O)NCc4ccccc4)c(F)c3)n2)CC1 [Example 116, 4-(3-amino-6-((1r,4r)-4-methoxycyclohexyl)pyrazin-2-yl)-N-benzyl-2-fluorobenzamide] | 18.9 nM | 9.42 nM |
| Cc1nn(C)cc1-c1cnc(N)c(-c2ccc(C(=O)N[C@H](CO)c3cccc(Cl)c3)c(F)c2)n1 [Example 127, (S)-4-(3-amino-6-(1,3-dimethyl-1H-pyrazol-4-yl)pyrazin-2-yl)-N-(1-(3-chlorophenyl)-2-hydroxyethyl)-2-fluorobenzamide] | 0.243 nM | 0.0604 nM |
| Cc1c(-c2cnc(N)c(-c3ccc(C(=O)N[C@H](CO)c4cccc(Cl)c4)c(F)c3)c2)cnn1C [Example 151, (S)-4-(2-amino-5-(1,5-dimethyl-1H-pyrazol-4-yl)pyridin-3-yl)-N-(1-(3-chlorophenyl)-2-hydroxyethyl)-2-fluorobenzamide] | 0.115 nM | 0.0233 nM |
| Cc1nn(C)cc1-c1cnc(N)c(-c2ccc(C(=O)N[C@H](CO)c3cccc(Cl)c3)c(F)c2)c1 [Example 152, (S)-4-(2-amino-5-(1,3-dimethyl-1H-pyrazol-4-yl)pyridin-3-yl)-N-(1-(3-chlorophenyl)-2-hydroxyethyl)-2-fluorobenzamide] | 0.145 nM | 0.041 nM |
| COCCn1cc(-c2cnc(N)c(-c3ccc(C(=O)N[C@H](CO)c4cccc(Cl)c4)c(F)c3)c2)cn1 [Example 172, (S)-4-(2-amino-5-(1-(2-methoxyethyl)-1H-pyrazol-4-yl)pyridin-3-yl)-N-(1-(3-chlorophenyl)-2-hydroxyethyl)-2-fluorobenzamide] | 0.158 nM | 0.0785 nM |
| Nc1ncc([C@H]2CC[C@H](N)CC2)nc1-c1ccc(C(=O)N[C@H](CO)c2cccc(Cl)c2)c(F)c1 [Example 191, 4-(3-amino-6-((1r,45)-4-aminocyclohexyl)pyrazin-2-yl)-N—((S)-1-(3-chlorophenyl)-2-hydroxyethyl)-2-fluorobenzamide] | 4.53 nM | 1.49 nM |
| Nc1ncc([C@H]2CC[C@@H](N)CC2)nc1-c1ccc(C(=O)N[C@H](CO)c2cccc(Cl)c2)c(F)c1 [Example 192, 4-(3-amino-6-((1s,4R)-4-aminocyclohexyl)pyrazin-2-yl)-N—((S)-1-(3-chlorophenyl)-2-hydroxyethyl)-2-fluorobenzamide] | 8.04 nM | 4.93 nM |
| Cn1cc(-c2cnc(N)c(-c3ccc(C(=O)N[C@H](CO)c4cccc(Cl)c4)c(F)c3)c2)cn1 [Example 263, (S)-4-(2-amino-5-(1-methyl-1H-pyrazol-4-yl)pyridin-3-yl)-N-(1-(3-chlorophenyl)-2-hydroxyethyl)-2-fluorobenzamide] | 0.191 nM | 0.0923 nM |
| Nc1ncc(C2CCOCC2)nc1-c1ccc(C(=O)N[C@H](CO)c2cccc(F)c2)c(F)c1 [Example 279, (S)-4-(3-amino-6-(tetrahydro-2H-pyran-4-yl)pyrazin-2-yl)-2-fluoro-N-(1-(3-fluorophenyl)-2-hydroxyethyl) benzamide] | 0.518 nM | 0.429 nM |
| Cc1cccc([C@@H](CO)NC(=O)c2ccc(-c3cc(-c4cn(C)nc4C)cnc3N)cc2F)c1 [Example 283, (S)-4-(2-amino-5-(1,3-dimethyl-1H-pyrazol-4-yl)pyridin-3-yl)-2-fluoro-N-(2-hydroxy-1-(m-tolyl)ethyl) benzamide] | 0.169 nM | 0.0378 nM |
| Cn1cc(-c2cnc(N)c(-c3ccc(C(=O)N[C@H](CO)c4cc(F)cc(Cl)c4)c(F)c3)c2)cn1 [Example 289, (S)-4-(2-amino-5-(1-methyl-1H-pyrazol-4-yl)pyridin-3-yl)-N-(1-(3-chloro-5-fluorophenyl)-2-hydroxyethyl)-2-fluorobenzamide] | 0.192 nM | 0.0814 nM |
| CCn1cc(-c2cnc(N)c(-c3ccc(C(=O)N[C@H](CO)c4cccc(Cl)c4)c(F)c3)c2)cn1 [Example 297, (S)-4-(2-amino-5-(1-ethyl-1H-pyrazol-4-yl)pyridin-3-yl)-N-(1-(3-chlorophenyl)-2-hydroxyethyl)-2-fluorobenzamide] | 0.153 nM | 0.0715 nM |
| Cn1nncc1-c1cnc(N)c(-c2ccc(C(=O)N[C@H](CO)c3cccc(Cl)c3)c(F)c2)c1 [Example 300, (S)-4-(2-amino-5-(1-methyl-1H-1,2,3-triazol-5-yl)pyridin-3-yl)-N-(1-(3-chlorophenyl)-2-hydroxyethyl)-2-fluorobenzamide] | 0.228 nM | 0.0655 nM |
| Cc1cccc([C@@H](CO)NC(=O)c2ccc(-c3nc(C4CCOCC4)cnc3N)cc2F)c1 [Example 309, (S)-4-(3-amino-6-(tetrahydro-2H-pyran-4-yl)pyrazin-2-yl)-2-fluoro-N-(2-hydroxy-1-(m-tolyl)ethyl) benzamide] | 0.104 nM | 0.0263 nM |
| Nc1ncc(C2CCCCC2)nc1-c1ccc(C(=O)NCc2ccccc2)c(F)c1 [Example 421, 4-(3-amino-6-cyclo-hexylpyrazin-2-yl)-N-benzyl-2-fluorobenzamide] | 12.6 nM | 6.38 nM |
| C[C@@H](NC(=O)c1ccc(-c2nc(C3CCCCC3)cnc2N)cc1F)c1cc(F)cc(S(C)(=O)=O)c1 [Example 423, (R)-4-(3-amino-6-cyclo-hexylpyrazin-2-yl)-2-fluoro-N-(1-(3-fluoro-5-(methylsulfonyl)phenyl)ethyl) benzamide] | 0.147 nM | 0.0614 nM |
| Nc1ncc(C2=CCCCC2)nc1-c1ccc(C(=O)NCc2ccccc2)c(F)c1 [Example 424, 4-(3-amino-6-(cyclohex-1-en-1-yl)pyrazin-2-yl)-N-benzyl-2-fluorobenzamide] | 155 nM | 113 nM |
| Nc1ncc(C2=CCCCC2)nc1-c1ccc(C(=O)N[C@H](CO)c2cccc(Cl)c2)c(F)c1 [Example 425, (S)-4-(3-amino-6-(cyclohex-1-en-1-yl)pyrazin-2-yl)-N-(1-(3-chlorophenyl)-2-hydroxyethyl)-2-fluorobenzamide] | 0.907 nM | 0.359 nM |
| C[C@@H](NC(=O)c1ccc(-c2nc(C3=CCCCC3)cnc2N)cc1F)c1cc(F)cc(S(C)(=O)=O)c1 [Example 426, (R)-4-(3-amino-6-(cyclohex-1-en-1-yl)pyrazin-2-yl)-2-fluoro-N-(1-(3-fluoro-5-(methylsulfonyl)phenyl)ethyl) benzamide] | 1.36 nM | 0.585 nM |
| Nc1ncc(C2=CCOCC2)nc1-c1ccc(C(=O)NCc2ccccc2)c(F)c1 [Example 427, 4-(3-amino-6-(3,6-dihydro-2H-pyran-4-yl)pyrazin-2-yl)-N-benzyl-2-fluorobenzamide] | 16.7 nM | 6.41 nM |
| Nc1ncc(C2=CCOCC2)nc1-c1ccc(C(=O)N[C@H](CO)c2cccc(Cl)c2)c(F)c1 [Example 428, (S)-4-(3-amino-6-(3,6-dihydro-2H-pyran-4-yl)pyrazin-2-yl)-N-(1-(3-chlorophenyl)-2-hydroxyethyl)-2-fluorobenzamide] | 0.219 nM | 0.0759 nM |
